In brackets after ≈: the same amount, converted by molar mass.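 96-well plates; 48 h exposure; 5 concentrations. Endpoints by linear interpolation between flanking doses. Not reached: highest tested concentration assigned. GI50: concentration for 50% inhibition of growth. Definition used: TGI = concentration required for complete inhibition of growth.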 Non-standard residues stand in square brackets, D forms with d. Residues, ends and D or L forms follow the SMILES beside them. ξ: configuration not given here. *: point of attachment. Boc = CC(C)(C)OC(=O)*; ξV = CC(C)C(N)C(=O)O; OBn = c1ccc(CO*)cc1
Legend:
Assay in all cases: inhibition of tumour cell growth, NCI panel, 48 h
[1] = system: MCF7 breast
[2] = system: COLO 205 colon
[3] = system: CCRF-CEM leukemia
[4] = system: OVCAR-3 ovarian
[5] = system: HCC-2998 colon
[6] = system: MDA-MB-231 breast
[7] = system: KM12 colon
[8] = system: M14 melanoma
[9] = system: NCI-H522 lung
[10] = system: 786-0 renal
[11] = system: HL-60(TB) leukemia
[12] = system: MDA-N
[13] = system: RPMI-8226 leukemia
[14] = system: HS 578T breast
[15] = system: HCT-116 colon
[16] = system: SK-MEL-2 melanoma
[17] = system: HCT-15 colon
[18] = system: MOLT-4 leukemia
[19] = system: K-562 leukemia
[20] = system: MDA-MB-435
[21] = system: U251 CNS
[22] = system: NCI/ADR-RES ovarian
[23] = system: RXF 393 renal
[24] = system: HOP-92 NSCLC
[25] = system: SW-620 colon
[26] = system: NCI-H226 lung
[27] = system: OVCAR-4 ovarian
[28] = system: A498 renal
[29] = system: ACHN renal
[30] = system: HT29 colon
[31] = system: SF-539 CNS
[32] = system: CAKI-1 renal
[33] = system: SF-268 CNS
[34] = system: UO-31 renal
[35] = system: SK-MEL-5 melanoma
[36] = system: UACC-257 melanoma
[37] = system: SNB-75 CNS
[38] = system: SR leukemia
[39] = system: SNB-19 CNS
[40] = system: T-47D breast
[41] = system: SK-MEL-28 melanoma
[42] = system: HOP-62 NSCLC
[43] = system: PC-3 prostate
[44] = system: DU-145 prostate
[45] = system: LOX IMVI melanoma
[46] = system: IGROV1 ovarian
[47] = system: BT-549 breast
[48] = system: TK-10 renal
[49] = system: OVCAR-8 ovarian
[50] = system: UACC-62 melanoma
[51] = system: NCI-H460 lung
[52] = system: EKVX NSCLC
[53] = system: NCI-H23 lung
[54] = system: SN12C renal
[55] = system: A549 NSCLC
[56] = system: SF-295 CNS
[57] = system: OVCAR-5 ovarian
[58] = system: SK-OV-3 ovarian
[59] = system: MALME-3M melanoma

For `CC(C)C(NC(=O)OC(C)(C)C)C(=O)NCC(=O)OCc1ccccc1` (centres undefined) (Boc-[ξV]-Gly-OBn), the GI50 [1] was 87 µg/mL, the GI50 [2] was 19.7 µg/mL and the TGI [2] was 40.9 µg/mL. For the same compound, the GI50 [3] was 0.594 µg/mL, the TGI [3] was 30.8 µg/mL and the GI50 [4] was 48.8 µg/mL. It also gave a GI50 [5] of 48.2 µg/mL, a GI50 [6] of 43 µg/mL and a GI50 [7] of 51.9 µg/mL. The GI50 [8] was 35.9 µg/mL, the GI50 [9] was 30 µg/mL and the GI50 [10] was 24 µg/mL. The TGI [10] was 71.9 µg/mL, the GI50 [11] was 17.3 µg/mL and the TGI [11] was 44.2 µg/mL. It also gave a GI50 [12] of 57.5 µg/mL (≈ 158 µM), a GI50 [13] of 36.1 µg/mL and a TGI [13] of 86.1 µg/mL. For the same compound, the GI50 [14] was 98.2 µg/mL, the GI50 [15] was 22 µg/mL and the TGI [15] was 52.6 µg/mL. The GI50 [16] was 22.5 µg/mL, the TGI [16] was 69.2 µg/mL and the GI50 [17] was 31.9 µg/mL. For the same compound, the GI50 [18] was 52.7 µg/mL, the GI50 [19] was 18.3 µg/mL and the TGI [19] was 75.1 µg/mL. For the same compound, the GI50 [20] was 44.5 µg/mL and the GI50 [21] was 94.9 µg/mL.

`OC(c1cccnc1)C(F)(F)c1nc2ccccc2o1` (centres undefined) gave a TGI [22] of over 100 µM, a TGI [23] of over 100 µM and a TGI [24] of over 100 µM. It also gave a TGI [25] of over 100 µM, a TGI [26] of over 100 µM and a TGI [27] of over 100 µM. The TGI [1] was over 100 µM, the TGI [2] was over 100 µM and the TGI [3] was over 100 µM. It also gave a TGI [28] of over 100 µM, a TGI [29] of over 100 µM and a TGI [30] of over 100 µM. It also gave a TGI [31] of over 100 µM, a TGI [32] of over 100 µM and a TGI [5] of over 100 µM. For the same compound, the TGI [6] was over 100 µM, the TGI [33] was over 100 µM and the TGI [7] was over 100 µM. The TGI [34] was over 100 µM, the TGI [35] was over 100 µM and the TGI [10] was over 100 µM. It also gave a TGI [36] of over 100 µM, a TGI [37] of over 100 µM and a TGI [11] of over 100 µM. The TGI [13] was over 100 µM, the TGI [14] was over 100 µM and the TGI [15] was over 100 µM. The TGI [38] was over 100 µM, the TGI [16] was over 100 µM and the TGI [39] was over 100 µM. For the same compound, the TGI [40] was over 100 µM, the TGI [17] was over 100 µM and the TGI [41] was over 100 µM. For the same compound, the TGI [18] was over 100 µM, the TGI [42] was over 100 µM and the TGI [19] was over 100 µM. It also gave a TGI [43] of over 100 µM, a TGI [44] of over 100 µM and a TGI [45] of over 100 µM. The TGI [46] was over 100 µM, the TGI [47] was over 100 µM and the TGI [48] was over 100 µM. The TGI [49] was over 100 µM, the TGI [50] was over 100 µM and the TGI [51] was over 100 µM. For the same compound, the TGI [52] was over 100 µM, the TGI [20] was over 100 µM and the TGI [53] was over 100 µM. The TGI [21] was over 100 µM.

Work on `CCN(CC)CCOc1ccc(/C(=C(\C)Cc2ccc(OC)cc2)c2ccc(OC(=O)NCc3ccccc3)cc2)cc1` yielded a GI50 [54] of 1.73 µM, a TGI [54] of 3.21 µM and a GI50 [22] of 3.18 µM. For the same compound, the TGI [22] was 11.8 µM, the GI50 [23] was 1.65 µM and the TGI [23] was 3.08 µM. The GI50 [24] was 1.48 µM, the TGI [24] was 3.17 µM and the GI50 [25] was 1.91 µM. For the same compound, the TGI [25] was 3.59 µM, the GI50 [26] was 4.71 µM and the TGI [26] was 18.7 µM. For the same compound, the GI50 [55] was 2.15 µM, the TGI [55] was 4.7 µM and the GI50 [27] was 2.47 µM. The TGI [27] was 7.51 µM, the GI50 [1] was 0.269 µM and the TGI [1] was 2.62 µM. The GI50 [2] was 1.86 µM, the TGI [2] was 3.76 µM and the GI50 [3] was 2.34 µM. The TGI [3] was 6.45 µM, the GI50 [4] was 1.85 µM and the TGI [4] was 3.47 µM. For the same compound, the GI50 [28] was 4.3 µM, the TGI [28] was 17.7 µM and the GI50 [29] was 1.85 µM. It also gave a TGI [29] of 3.58 µM, a GI50 [30] of 1.89 µM and a TGI [30] of 4.29 µM. For the same compound, the GI50 [31] was 1.75 µM, the TGI [31] was 3.19 µM and the GI50 [32] was 2.27 µM. For the same compound, the TGI [32] was 6.53 µM, the GI50 [5] was 1.84 µM and the TGI [5] was 3.62 µM. It also gave a GI50 [6] of 1.86 µM, a TGI [6] of 3.47 µM and a GI50 [33] of 2.87 µM. The TGI [33] was 10.7 µM, the GI50 [7] was 1.87 µM and the TGI [7] was 3.89 µM. The GI50 [56] was 1.75 µM, the TGI [56] was 3.3 µM and the GI50 [34] was 1.52 µM. The TGI [34] was 3.02 µM, the GI50 [8] was 1.7 µM and the TGI [8] was 3.26 µM. For the same compound, the GI50 [9] was 1.93 µM, the TGI [9] was 4.24 µM and the GI50 [35] was 1.75 µM. It also gave a TGI [35] of 3.16 µM, a GI50 [10] of 1.64 µM and a TGI [10] of 3.04 µM. The GI50 [36] was 2.04 µM, the TGI [36] was 4.2 µM and the GI50 [57] was 3.63 µM. The TGI [57] was 14.6 µM, the GI50 [37] was 2.42 µM and the TGI [37] was 8.48 µM. It also gave a GI50 [11] of 1.3 µM, a TGI [11] of 2.97 µM and a GI50 [13] of 2.13 µM. For the same compound, the TGI [13] was 4.4 µM, the GI50 [58] was 5.11 µM and the TGI [58] was 18.7 µM. For the same compound, the GI50 [14] was 2.36 µM, the TGI [14] was 6.16 µM and the GI50 [15] was 1.57 µM. It also gave a TGI [15] of 2.97 µM, a GI50 [38] of 1.99 µM and a TGI [38] of 4.31 µM. The GI50 [16] was 2.16 µM, the TGI [16] was 4.9 µM and the GI50 [39] was 3.5 µM. It also gave a TGI [39] of 11.6 µM, a GI50 [40] of 1.2 µM and a TGI [40] of 4.11 µM. For the same compound, the GI50 [17] was 1.53 µM, the TGI [17] was 3.23 µM and the GI50 [41] was 1.82 µM. The TGI [41] was 3.44 µM, the GI50 [18] was 2.11 µM and the TGI [18] was 5.73 µM. The GI50 [42] was 2.09 µM, the TGI [42] was 4.87 µM and the GI50 [19] was 1.75 µM. The TGI [19] was 4.52 µM, the GI50 [43] was 1.94 µM and the TGI [43] was 3.88 µM. The GI50 [44] was 2.24 µM, the TGI [44] was 5.56 µM and the GI50 [45] was 1.59 µM. For the same compound, the TGI [45] was 3 µM, the GI50 [46] was 2.46 µM and the TGI [46] was 6.11 µM. For the same compound, the GI50 [47] was 1.7 µM, the TGI [47] was 3.36 µM and the GI50 [48] was 2.68 µM. For the same compound, the TGI [48] was 6.77 µM, the GI50 [49] was 2.38 µM and the TGI [49] was 5.69 µM. For the same compound, the GI50 [59] was 1.72 µM, the TGI [59] was 3.3 µM and the GI50 [50] was 1.92 µM. For the same compound, the TGI [50] was 3.55 µM, the GI50 [51] was 1.84 µM and the TGI [51] was 3.37 µM. It also gave a GI50 [52] of 2.63 µM, a TGI [52] of 11.5 µM and a GI50 [20] of 1.86 µM. The TGI [20] was 3.97 µM, the GI50 [53] was 3.24 µM and the TGI [53] was 13.3 µM. The GI50 [21] was 1.83 µM and the TGI [21] was 3.43 µM.
